Assay results reported in patent publication US20260055083A1, “APOL1 INHIBITORS AND METHODS OF USE” (Maze Therapeutics, Inc., priority 2022, published 2026).

Columns and labels:
APOL1 G2 [1] = biological target: T1, APOL1 G2 (Homo sapiens, UniProt O14791, DEL388-389); assay: APOL1 G2 FLIPR calcium influx assay (HEK T-REx/GCaMP6f/APOL1 G2 K6.3 cells); type: cell-based; details: HEK293 clone expressing GCaMP6f, doxycycline-induced APOL1 G2; prevention of calcium influx; geometric mean of at least 2 assay runs
T1 construct: expressed in transfected cells; host or cells: HEK293/T-REx APOL1 G2 clone #2, doxycycline-inducible
T1 sequence (O14791 with tags, fused parts or gaps DEL388-389): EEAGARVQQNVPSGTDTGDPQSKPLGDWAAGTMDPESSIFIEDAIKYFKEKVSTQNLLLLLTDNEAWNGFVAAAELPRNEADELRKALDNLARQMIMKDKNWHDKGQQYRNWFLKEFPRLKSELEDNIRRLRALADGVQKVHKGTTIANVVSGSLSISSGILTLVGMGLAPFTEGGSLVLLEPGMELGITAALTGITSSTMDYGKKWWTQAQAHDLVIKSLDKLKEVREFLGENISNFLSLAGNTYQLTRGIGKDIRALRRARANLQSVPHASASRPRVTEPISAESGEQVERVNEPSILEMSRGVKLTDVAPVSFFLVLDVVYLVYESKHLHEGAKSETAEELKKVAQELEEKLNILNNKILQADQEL
In short: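 Cells express GCaMP6f stably and APOL1 G2 after a 6 h doxycycline induction. Duplicate 8-point dilutions sit 10 min at room temperature in Ca2+-free Tyrode's (pH 7.4), then Ca2+ is injected to 5 mM final and the FLIPR signal recorded. AC50s are geometric means across ≥2 days.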

APOL1 G2 [2] = biological target: T1, APOL1 G2; assay: APOL1 G2 HEK293 rescue of cell death caused by overexpression of APOL1 (CellTiter-Glo); type: cell-based; details: HEK293/T-REx APOL1 G2 clone #2, doxycycline induction, 17 hours, CellTiter-Glo luminescence; reversal of cell death; geometric mean of at least 2 assay runs
In short: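 Viability read by CellTiter-Glo luminescence after 17 h, 37 °C, in HEK293/T-REx cells expressing APOL1 G2 on 6 ng/mL doxycycline, 5,000 cells/well. Compounds tested as duplicate 8-point, 3-fold dilutions, 0.5% DMSO final; four-parameter logistic EC50, usually geometric mean of ≥2 days.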

AC50 (APOL1 G2 [1]) [nM] | SMILES | EC50 (APOL1 G2 [2]) [nM]
1250 | CS(=O)(=O)c1ccc(OC[C@@H]2CN(C(CO)Cc3cccc(Cl)c3)CCN2)cc1 (single isomer, unassigned) [Compound 118, (2R or 2S)-3-(3-chlorophenyl)-2-[(3S)-3-[(4-methanesulfonylphenoxy)methyl]piperazin-1-yl]propan-1-ol] | > 10000
2330 | CS(=O)(=O)c1ccc(OC[C@@H]2CN(C(CO)Cc3cccc(Cl)c3)CCN2)cc1 (single isomer, unassigned) [Compound 119, (2S or 2R)-3-(3-chlorophenyl)-2-[(3S)-3-[(4-methanesulfonylphenoxy)methyl]piperazin-1-yl]propan-1-ol] | 633
1110 | C[C@@H]1CN(C(CO)Cc2cc(Cl)cc(C#N)c2)C[C@H]1COc1ccc(S(C)(=O)=O)cc1 (single isomer, unassigned) [Compound 121, 3-chloro-5-[(2R or 2S)-3-hydroxy-2-[(3S,4S)-3-[(4-methanesulfonylphenoxy)methyl]-4-methylpyrrolidin-1-yl]propyl]benzonitrile] | > 10000
1110 | C[C@@H]1CN(C(CO)Cc2cc(Cl)cc(C#N)c2)C[C@H]1COc1ccc(S(C)(=O)=O)cc1 (single isomer, unassigned) [Compound 122, 3-chloro-5-[(2S or 2R)-3-hydroxy-2-[(3S,4S)-3-[(4-methanesulfonylphenoxy)methyl]-4-methylpyrrolidin-1-yl]propyl]benzonitrile] | 789
201 | CS(=O)(=O)c1ccc(OCC2C[C@@H](CO)N(CCc3cccc(Cl)c3)C2)cc1 (single isomer, unassigned) [Compound 123, [(2S,4S or 4R)-1-[2-(3-chlorophenyl)ethyl]-4-[(4-methanesulfonylphenoxy)methyl]pyrrolidin-2-yl]methanol] | 393
4920 | CS(=O)(=O)c1ccc(OCC2C[C@@H](CO)N(CCc3cccc(Cl)c3)C2)cc1 (single isomer, unassigned) [Compound 124, [(2S,4R or 4S)-1-[2-(3-chlorophenyl)ethyl]-4-[(4-methanesulfonylphenoxy)methyl]pyrrolidin-2-yl]methanol] | 5310
2210 | CS(=O)(=O)c1ccc(OC[C@H]2C[C@H]3CCCC(Cc4cc(Cl)cc(C#N)c4)N3C2)cc1 (single isomer, unassigned) [Compound 125, 3-{[(2S,5R or 5S,8aR)-2-[(4-methanesulfonylphenoxy)methyl]-octahydroindolizin-5-yl]methyl}-5-chlorobenzonitrile] | 449
2220 | C[C@@H]1CN(CC(CO)c2cc(Cl)cc(C#N)c2)C[C@H]1COc1ccc(S(C)(=O)=O)cc1 (single isomer, unassigned) [Compound 127, 3-chloro-5-[(2R or 2S)-1-hydroxy-3-[(3S,4S)-3-[(4-methanesulfonylphenoxy)methyl]-4-methylpyrrolidin-1-yl]propan-2-yl]benzonitrile] | > 10000
1510 | C[C@@H]1CN(CC(CO)c2cc(Cl)cc(C#N)c2)C[C@H]1COc1ccc(S(C)(=O)=O)cc1 (single isomer, unassigned) [Compound 128, 3-chloro-5-[(2S or 2R)-1-hydroxy-3-[(3S,4S)-3-[(4-methanesulfonylphenoxy)methyl]-4-methylpyrrolidin-1-yl]propan-2-yl]benzonitrile] | 711
4250 | C[C@@H]1C[C@H](COc2ccc(S(C)(=O)=O)cc2)CN1CC(CO)c1cc(Cl)cc(C#N)c1 (single isomer, unassigned) [Compound 129, 3-chloro-5-[(2R or 2S)-1-hydroxy-3-[(2R,4S)-4-[(4-methanesulfonylphenoxy)methyl]-2-methylpyrrolidin-1-yl]propan-2-yl]benzonitrile] | 2140
1940 | C[C@@H]1C[C@H](COc2ccc(S(C)(=O)=O)cc2)CN1CC(CO)c1cc(Cl)cc(C#N)c1 (single isomer, unassigned) [Compound 130, 3-chloro-5-[(2S or 2R)-1-hydroxy-3-[(2R,4S)-4-[(4-methanesulfonylphenoxy)methyl]-2-methylpyrrolidin-1-yl]propan-2-yl]benzonitrile] | 303
446 | CS(=O)(=O)c1ccc(OC[C@@H]2CCCN(C3CCc4ccc(Cl)cc4C3)C2)cc1 (single isomer, unassigned) [Compound 132, (3R)-1-[(2S or 2R)-7-chloro-1,2,3,4-tetrahydronaphthalen-2-yl]-3-[(4-methanesulfonylphenoxy)methyl]piperidine] | 924
1150 | CS(=O)(=O)c1ccc(OC[C@@H]2CCCN(C3CCc4ccc(Cl)cc4C3)C2)cc1 (single isomer, unassigned) [Compound 133, (3R)-1-[(2R or 2S)-7-chloro-1,2,3,4-tetrahydronaphthalen-2-yl]-3-[(4-methanesulfonylphenoxy)methyl]piperidine] | 1910
601 | C[C@@H]1C[C@H](COc2ccc(S(C)(=O)=O)cc2)CN1C1CCc2c(C#N)cccc2C1 (single isomer, unassigned) [Compound 134, (6R or 6S)-6-[(2R,4S)-4-[(4-methanesulfonylphenoxy)methyl]-2-methylpyrrolidin-1-yl]-5,6,7,8-tetrahydronaphthalene-1-carbonitrile] | 292
576 | C[C@@H]1C[C@H](COc2ccc(S(C)(=O)=O)cc2)CN1C1CCc2c(C#N)cccc2C1 (single isomer, unassigned) [Compound 135, (6S or 6S)-6-[(2R,4S)-4-[(4-methanesulfonylphenoxy)methyl]-2-methylpyrrolidin-1-yl]-5,6,7,8-tetrahydronaphthalene-1-carbonitrile] | 84.2
707 | C[C@@H]1C[C@H](COc2ccc(S(C)(=O)=O)cc2)CN1C1CCc2ccc(C#N)cc2C1 (single isomer, unassigned) [Compound 136, (7S or 7R)-7-[(2R,4S)-4-[(4-methanesulfonylphenoxy)methyl]-2-methylpyrrolidin-1-yl]-5,6,7,8-tetrahydronaphthalene-2-carbonitrile] | 704
222 | C[C@@H]1C[C@H](COc2ccc(S(C)(=O)=O)cc2)CN1C1CCc2ccc(C#N)cc2C1 (single isomer, unassigned) [Compound 137, (7R or 7S)-7-[(2R,4S)-4-[(4-methanesulfonylphenoxy)methyl]-2-methylpyrrolidin-1-yl]-5,6,7,8-tetrahydronaphthalene-2-carbonitrile] | 35.8
1080 | C[C@@H]1C[C@H](COc2ccc(S(C)(=O)=O)cc2)CN1C1CCc2c(Cl)cccc2C1 (single isomer, unassigned) [Compound 138, (2R,4S)-1-[(2R or 2S)-5-chloro-1,2,3,4-tetrahydronaphthalen-2-yl]-4-[(4-methanesulfonylphenoxy)methyl]-2-methylpyrrolidine] | 149
1260 | C[C@@H]1C[C@H](COc2ccc(S(C)(=O)=O)cc2)CN1C1CCc2c(Cl)cccc2C1 (single isomer, unassigned) [Compound 139, (2R,4S)-1-[(2S or 2R)-5-chloro-1,2,3,4-tetrahydronaphthalen-2-yl]-4-[(4-methanesulfonylphenoxy)methyl]-2-methylpyrrolidine] | 260
160 | CC(c1ccc(OC[C@@H]2CN(CCc3cccc(Cl)c3)CCN2)cc1)S(C)(=O)=O (single isomer, unassigned) [Compound 141, (3S)-1-[2-(3-chlorophenyl)ethyl]-3-({4-[(1R) or (1S)-1-methanesulfonylethyl]phenoxy}methyl)piperazine] | 234
703 | CC(c1ccc(OC[C@@H]2CN(CCc3cccc(Cl)c3)CCN2)cc1)S(C)(=O)=O (single isomer, unassigned) [Compound 142, (3S)-1-[2-(3-chlorophenyl)ethyl]-3-({4-[(1S) or (1R)-1-methanesulfonylethyl]phenoxy}methyl)piperazine] | 231
265 | C[C@@H]1CN(CC(O)c2cccc(Cl)c2)C[C@H]1COc1ccc(S(C)(=O)=O)cc1 (single isomer, unassigned) [Compound 144, (1S) or (1R)-1-(3-chlorophenyl)-2-[trans-3-[(4-methanesulfonylphenoxy)methyl]-4-methylpyrrolidin-1-yl]ethan-1-ol] | 289
39.7 | C[C@@H]1C[C@H](COc2cnc(S(C)(=O)=O)cn2)CN1CCc1cccc(C#N)c1 [Compound 1, 3-(2-((2R,4S)-2-methyl-4-(((5-(methylsulfonyl)pyrazin-2-yl)oxy)methyl)pyrrolidin-1-yl)ethyl)benzonitrile] | 53.7
